Measurements reported in US9533128B2, “Devices for maintaining patency of surgically created channels in tissue” (Broncus Medical Inc., priority 2003, dated 2017).

Conditions: polymer system of polydimethylsiloxane vinyl terminated at various viscosity and platinum-mono, di, tri and/or tetramethyldisiloxane complex
Description: These components may be combined in different ratios to make the polymer. […] The amount of vinyl siloxane cross-linker may determine the rate of the drug release and diffusivity of the polymer to the drug.

- release profile: acceptable
Compound: CC(=O)O[C@H]1C(=O)[C@@]2(C)[C@H]([C@H](OC(=O)c3ccccc3)[C@]3(O)C[C@H](OC(=O)[C@H](O)[C@@H](NC(=O)c4ccccc4)c4ccccc4)C(C)=C1C3(C)C)[C@]1(OC(C)=O)CO[C@@H]1C[C@@H]2O [paclitaxel]
